# Several values for one entry are separate records, joined by “and”; a condition that tells them apart may be missing. Equal values may be shown once. Read-outs that look alike come from different tables or passages of the source.
# Columns and labels:
# μ opiate receptor = tested on: μ opiate receptor; parameters: species or system guinea-pig
# [1] = Formalin-induced hind paw licking test (mouse analgesia model); assay type: in vivo, ICR derived male mice; details: for % Reduction in Hind Paw Licking time: given one hour before subplantar formalin, licking time recorded during the following 20 to 30 minute period
# [2] = PQ-induced writhing test (mouse analgesia model); assay type: in vivo, ICR derived male mice; details: for % Reduction in Writhes: given 30 minutes before PQ (2 mg/kg), writhes 5 to 10 minutes after PQ
# [3] = in vivo
smiles,measurement,setting,value
"N=C(N)N1CC[C@]23c4c5ccc(O)c4O[C@H]2[C@@H](O)C=CC3[C@H]1C5 (stereo partly drawn) [KRS-2-19, (5α,6α)-7,8-didehydro-4,5-epoxy-17-N-(2-carboxamidino)-morphinan-3,6, -diol]",agonist character (full / partial),μ opiate receptor,only partial morphine agonist activity
"N=C(N)CCN1CC[C@]23c4c5ccc(O)c4O[C@H]2[C@@H](O)C=CC3[C@H]1C5 (stereo partly drawn) [KRS-41, (5α,6α)-7,8-didehydro-4,5-epoxy-17-N-[(2-aminoiminomethyl)ethyl]-morphinan-3,6-diol]",% Reduction in Hind Paw Licking time,[1]; 10 mg/kg,12%
same,% Reduction in Hind Paw Licking time,[1]; 30 mg/kg,75%
same,analgesic activity at multiple of the morphine concentration,"[1]; formalin test, relative to morphine",3 times the morphine concentration
same,% Reduction in Writhes,[2]; 3 mg/kg,18%
same,% Reduction in Writhes,[2]; 15 mg/kg,93%
same,analgesic activity at multiple of the morphine concentration,"[2]; PQ writhing test, relative to morphine",5 times the morphine concentration
same,opiate activity in stimulated ileum compared to standard,μ opiate receptor,excellent activity compared to morphine
same,Corneal reflex,[3]; 30 mg/kg,4.9 ± 0.1
same,Grip strength,[3]; 30 mg/kg,5.1 ± 0.4
same,Positional Passivity,[3]; 30 mg/kg,4.7 ± 0.3
same,Respiratory rate,[3]; 30 mg/kg,5.1 ± 0.2
same,Tail elevation,[3]; 30 mg/kg,2.0 ± 0.4
"CN1CC[C@]23c4c5ccc(O)c4O[C@H]2[C@@H](O)C=C[C@H]3[C@H]1C5.Cl [Morphine HCl, reference compound]",% Reduction in Hind Paw Licking time,[1]; 10 mg/kg,100%
same,% Reduction in Writhes,"[2]; 3 mg/kg, HCl",87% and 73%
"COc1ccc2c3c1O[C@H]1[C@@H](O)C=CC4[C@@H](C2)N(CCC(=N)N)CC[C@@]341 (stereo partly drawn) [KRS-2-63, 5α,6α-7,8-didehydro-4,5-epoxy-3-methoxy-17-N-[(2-aminoiminomethyl)ethyl]morphinan]",agonist character (full / partial),μ opiate receptor,partial agonist activity
"CN1CC[C@]23c4c5ccc(O)c4O[C@H]2[C@@H](O)C=C[C@H]3[C@H]1C5 [Morphine, reference compound]",Corneal reflex,[3]; 10 mg/kg,2.9 ± 0.2
same,Grip strength,[3]; 10 mg/kg,3.7 ± 0.3
same,Positional Passivity,[3]; 10 mg/kg,8.7 ± 0.4
same,Respiratory rate,[3]; 10 mg/kg,4.1 ± 0.3
same,Tail elevation,[3]; 10 mg/kg,7.0 ± 0.7
